This is an account of results in article PMC4672351, “Drug-Drug Interaction Potentials of Tyrosine Kinase Inhibitors via Inhibition of UDP-Glucuronosyltransferases” (Scientific Reports, 2015).

As usually defined, the Cmax is the peak of the concentration-time curve. In general, IC50 refers to the concentration needed to halve the response being measured. A low value points to higher potency. For orientation: Ki means a measure of affinity in units of concentration, obtained from inhibition or displacement.

For data set [1] the following is noted: ref [17][40][45] axitinib, [38][39][46] imatinib, [41][42] lapatinib, [43][44] vandetanib, cited from earlier work; for Cmax: clinical oral dose: axitinib 5 mg/12 h, imatinib 400 mg/24 h, lapatinib 1250 mg/24 h, vandetanib 300 mg/24 h; for Absorption Rate Constant (ka) / Fraction absorbed (Fa) / Oral CL / t1/2: clinical.
Data set [2] addresses T1, UGT1A9 (Homo sapiens, UniProt O60656).
T1 sequence (O60656 26-530): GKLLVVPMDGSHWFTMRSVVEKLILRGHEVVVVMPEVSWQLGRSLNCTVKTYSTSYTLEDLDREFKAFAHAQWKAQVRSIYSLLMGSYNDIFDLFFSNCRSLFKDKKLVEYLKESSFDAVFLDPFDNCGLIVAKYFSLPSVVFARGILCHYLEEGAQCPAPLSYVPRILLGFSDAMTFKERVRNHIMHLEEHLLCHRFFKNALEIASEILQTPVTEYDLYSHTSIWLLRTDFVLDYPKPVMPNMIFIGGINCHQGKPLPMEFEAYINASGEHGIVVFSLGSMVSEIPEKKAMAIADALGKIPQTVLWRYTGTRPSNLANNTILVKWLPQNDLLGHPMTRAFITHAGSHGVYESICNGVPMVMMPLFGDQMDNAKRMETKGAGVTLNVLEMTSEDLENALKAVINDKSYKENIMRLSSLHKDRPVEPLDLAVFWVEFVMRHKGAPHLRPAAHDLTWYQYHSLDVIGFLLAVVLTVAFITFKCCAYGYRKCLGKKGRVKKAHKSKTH
As to the kind of experiment: in vitro. Conditions: recombinant UGT1A9, pH 7.4, probe 4-MU.

The target of the next data set is T2, UGT1A3 (Homo sapiens, UniProt P35503).
T2 sequence (P35503 29-534): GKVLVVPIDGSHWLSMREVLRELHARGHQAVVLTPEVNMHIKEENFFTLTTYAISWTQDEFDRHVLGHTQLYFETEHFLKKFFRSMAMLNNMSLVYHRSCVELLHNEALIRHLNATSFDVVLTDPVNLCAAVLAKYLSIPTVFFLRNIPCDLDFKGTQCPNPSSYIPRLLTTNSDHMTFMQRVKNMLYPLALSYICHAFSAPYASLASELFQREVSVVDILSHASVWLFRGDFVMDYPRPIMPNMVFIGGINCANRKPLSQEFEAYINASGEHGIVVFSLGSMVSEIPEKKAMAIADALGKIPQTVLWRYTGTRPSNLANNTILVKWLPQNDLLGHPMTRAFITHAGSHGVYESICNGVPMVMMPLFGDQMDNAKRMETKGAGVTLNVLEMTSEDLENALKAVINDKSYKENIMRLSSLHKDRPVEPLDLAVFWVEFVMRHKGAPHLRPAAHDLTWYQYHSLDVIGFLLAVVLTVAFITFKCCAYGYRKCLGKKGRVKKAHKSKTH
Kind of data set: Inhibition of 4-MU glucuronidation by recombinant UGT1A3. Particulars: recombinant UGT1A3, pH 7.4, probe 4-MU.

The target in another data set is T3, UGT1A7 (Homo sapiens, UniProt Q9HAW7).
T3 sequence (Q9HAW7 26-530): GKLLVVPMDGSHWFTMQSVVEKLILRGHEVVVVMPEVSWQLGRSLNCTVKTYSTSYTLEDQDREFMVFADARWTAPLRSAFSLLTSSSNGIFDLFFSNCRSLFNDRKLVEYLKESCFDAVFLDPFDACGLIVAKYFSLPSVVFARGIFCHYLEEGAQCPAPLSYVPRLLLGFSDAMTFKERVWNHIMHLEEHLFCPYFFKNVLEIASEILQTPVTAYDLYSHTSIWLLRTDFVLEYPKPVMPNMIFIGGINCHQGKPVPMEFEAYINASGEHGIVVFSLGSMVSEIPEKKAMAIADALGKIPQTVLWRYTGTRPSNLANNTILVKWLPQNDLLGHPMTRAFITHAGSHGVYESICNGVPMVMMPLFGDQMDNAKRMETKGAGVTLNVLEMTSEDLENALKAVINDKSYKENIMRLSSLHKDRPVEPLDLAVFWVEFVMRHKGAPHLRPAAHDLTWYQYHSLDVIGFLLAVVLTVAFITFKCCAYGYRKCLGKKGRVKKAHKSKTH
As to the kind of experiment: Prediction of DDI risk (AUCi/AUC) from in vitro data, UGT1A7 substrates. Details: purchased BD Gentest (Woburn, MA); host or cells: baculovirus-infected insect cells.

Another data set has as its target T4, UGT1A4 (Homo sapiens, UniProt P22310).
T4 sequence (P22310 29-534): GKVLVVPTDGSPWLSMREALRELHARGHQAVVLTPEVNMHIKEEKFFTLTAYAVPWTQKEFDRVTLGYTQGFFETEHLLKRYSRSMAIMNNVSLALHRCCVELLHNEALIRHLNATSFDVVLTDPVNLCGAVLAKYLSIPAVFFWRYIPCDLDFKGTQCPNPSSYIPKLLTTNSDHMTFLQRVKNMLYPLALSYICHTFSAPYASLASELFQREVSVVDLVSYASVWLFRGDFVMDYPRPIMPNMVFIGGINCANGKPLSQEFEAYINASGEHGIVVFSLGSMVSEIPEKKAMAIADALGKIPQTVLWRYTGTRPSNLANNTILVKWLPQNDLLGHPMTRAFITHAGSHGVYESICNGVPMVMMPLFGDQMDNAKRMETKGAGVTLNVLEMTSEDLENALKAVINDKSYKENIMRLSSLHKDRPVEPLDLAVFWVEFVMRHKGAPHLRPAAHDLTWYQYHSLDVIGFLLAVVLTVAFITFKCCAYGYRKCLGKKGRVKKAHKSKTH
Kind of data set: Prediction of DDI risk (AUCi/AUC) from in vitro data, UGT1A4 substrates. The arrangement: purchased BD Gentest (Woburn, MA); host or cells: baculovirus-infected insect cells. Particulars: fm is 1. As to the method: The ratio was calculated based on the eq.

In data set [3] the target is T1, UGT1A9.
Data set [4] deals with T1, UGT1A9. Kind of data set: biochemical.

In the case of `CS(=O)(=O)CCNCc1ccc(-c2ccc3ncnc(Nc4ccc(OCc5cccc(F)c5)c(Cl)c4)c3c2)o1` [Lapatinib, lapatinib], in data set [1], the peak concentration (Cmax) was 4.2 µM, the “Absorption Rate Constant (ka)” value is 0.7 h⁻¹, the “Fraction absorbed (Fa)” value is given as 0.73 and the “Oral CL” value is 114 L/h. The t1/2 in data set [1] was 24 h. For the same compound, the activity at 30 min, 100 µM at UGT1A9 [2] is 51.1 ± 7.9%. In addition, the activity at 75 min, 100 µM at UGT1A3 was found to be 96.5 ± 7.5%. Further, at UGT1A7 (fm not given, Imax,u used), the “Predicted increase in the AUC of substrate by UGT1A7 inhibition” value is around 1%.
With `CNC(=O)c1ccccc1Sc1ccc2c(/C=C/c3ccccn3)n[nH]c2c1` [Axitinib, axitinib], in data set [1], the Cmax was 0.16 µM, the “Absorption Rate Constant (ka)” value was 0.523 h⁻¹, the “Fraction absorbed (Fa)” value was 0.88 and the “Oral CL” value was 45 L/h. The t1/2 in data set [1] is 3.2 h. Also, the “Predicted AUCi/AUC ratio of UGT1A4 substrates” value at UGT1A4 is listed as around 1. Further, the activity at 30 min, 100 µM at UGT1A9 [2] came to 44.8 ± 0.2%. In addition, the activity at 75 min, 100 µM at UGT1A3 was determined as 47.8 ± 12.8%. Besides, the “Predicted AUCi/AUC ratio of UGT1A7 substrates” value at UGT1A7 (fm is 1) is around 1. The “Predicted AUCi/AUC ratio of UGT1A9 substrates” value on UGT1A9 [3] (fm is 1) is around 1. At UGT1A9 [4], this compound had a concentration for half-maximal inhibition (IC50) of 3.6 ± 0.7 µM.
As for `COc1cc2c(Nc3ccc(Br)cc3F)ncnc2cc1OCC1CCN(C)CC1` [Vandetanib, vandetanib], in data set [1], the Cmax was 3.32 µM, the “Absorption Rate Constant (ka)” value is 0.3 h⁻¹, the “Fraction absorbed (Fa)” value is given as 0.935 and the “Oral CL” value is 13.2 L/h. Besides, in data set [1], the t1/2 is reported as 456 h. Besides, the activity at 30 min, 100 µM on UGT1A9 [2] worked out at 14.1 ± 4.7%. For the same compound, at UGT1A3, the activity at 75 min, 100 µM was 104 ± 2.1%. Besides, at UGT1A9 [3] (fm not given), the “Predicted increase in the AUC of substrate by UGT1A9 inhibition” value is recorded as “about 2%”. At UGT1A9 [4], this compound registered a 50% inhibitory concentration (IC50) of 5 ± 0.4 µM and a Ki of 9 ± 1.2 µM.
